Results published in patent publication US20160272992A1, “PROTECTION OF PLANTS AGAINST OXIDATIVE STRESS” (priority 2013, published 2016).

What was measured:
SIM/SMR promoters = assay: SIM/SMR promoter:GUS transcriptional reporter lines; format: in vivo, Arabidopsis thaliana
Excerpt: SIM/SMR promoter sequences were amplified from genomic DNA by PCR using the primers described in Table 5. The product fragments were created with the Pfu DNA Polymerase Kit (Promega, Catalog #M7745), and were cloned into a pDONR P4-Plr entry vector by BP recombination cloning and subsequently transferred into the pMK7S*NFml4GW,0 destination vector by LR cloning, resulting in a transcriptional fusion between the promoter of the SMR genes and the nlsGFP-GUS fusion gene (Karimi et al., 2007). For the overexpression constructs, the SMR coding regions were amplified using primers described in Table 5, and cloned into the pDONR221 vector by BP recombination cloning and subsequently transferred into the pK2GW7 destination vector (Kamimi et al., 2002) by LR cloning. All constructs were transferred into the Agrobacterium tumefaciens C58C1RifR strain harboring the pMP90 plasmid. The obtained Agrobacterium strains were used to generate stably transformed Arabidopsis lines with the floral dip transformation method (Clough and Bent, 1998). Transgenic plants were obtained on kanamycin-containing medium and later transferred to soil for optimal seed production.
Complete seedlings or tissue cuttings were stained in multiwell plates (Falcon 3043; Becton Dickinson). GUS assays were performed as described by Beeckman and Engler (1994). Samples mounted in lactic acid were observed and photographed with a stereomicroscope (Olympus BX51 microscope) or with a differential interference contrast (DIC) microscope (Leica).
To confirm involvement of SIM/SMR genes in the genotoxic stress response, transcriptional reporter lines containing the putative upstream promoter sequences were constructed for all. After selection of representative reporter lines, one-week-old seedlings were transferred to control medium, or medium supplemented with HU (resulting into stalled replication forks) or bleomycin (causing DSBs).

[1] = test system: root meristem material of seedlings; details: 0.3 μg/mL bleomycin for 24 hours
Description: Seeds were plated on sterilized membranes and grown under a 16-hour light/8-hour dark regime at 21° C. After 2 days of germination and 5 days of growth, the membrane was transferred to MS medium containing 0.3 μg/mL bleomycin for 24 hours. Triplicate batches of root meristem material seedlings were harvested for total RNA preparation using the RNEASY® plant mini kit (Qiagen). Each of the different root tip RNA extracts were hybridized to 12 AFFYMETRIX® Arabidopsis Gene 1.0 ST Arrays according to manufacturer's instructions at the Nucleomics Core Facility (Leuven, Belgium; World Wide Web at nucleomics.be). Raw data were processed with the RMA algorithm (Irizarry et al., 2003) using the AFFYMETRIX® Power Tools and subsequently subjected to a Significance Analysis of Microarray (SAM) analysis with “MultiExperiment Viewer 4” (MeV4) of The Institute for Genome Research (TIGR) (Tusher et al., 2001). The imputation engine was set as 10-nearest neighbor imputer and the number of permutations was 100. Expression values were obtained by log 2-transforming the average value of the normalized signal intensities of the triplicate samples. Fold changes were obtained using the expression values of the treatment relative to the control samples. Genes with Q-values<0.1 and fold change>1.5 or <0.666 were retained for further analysis.

[2] = root meristem, treatment relative to control

Substance: bleomycin
- induction of SMR6 reporter in root tips (SIM/SMR promoters; one-week-old seedlings, 0.3 μg/mL bleomycin, GUS assay after 24 hours): weak cell-specific induction
- induction of SMR5 and SMR7 GUS reporters in the proliferating leaf (SIM/SMR promoters; treated for 24 hours): induced
- Bleomycin fold change, AT1G07500 (Siamese-related 5) [1, 2]: 1.595
- Bleomycin fold change, AT1G13330 (Hop2 homolog) [1, 2]: 1.580
- Bleomycin fold change, AT1G17460 (TRF-like 3) [1, 2]: 1.681
- Bleomycin fold change, AT1G49030 (PLAC8 family protein) [1, 2]: 2.653
- Bleomycin fold change, AT2G18600 (Ubiquitin-conjugating enzyme family protein) [1, 2]: 1.972
- Bleomycin fold change, AT2G45460 (SMAD/FHA domain-containing protein) [1, 2]: 1.575
- Bleomycin fold change, AT2G46610 (RNA-binding RRM/RBD/RNP motifs family protein) [1, 2]: 1.546
- Bleomycin fold change, AT3G07800 (Thymidine kinase) [1, 2]: 2.759
- Bleomycin fold change, AT3G25250 (AGC kinase family protein) [1, 2]: 1.517
- Bleomycin fold change, AT3G27060 (Ferritin/ribonucleotide reductase-like family protein) [1, 2]: 1.970
- Bleomycin fold change, AT3G27620 (alternative oxidase 1C) [1, 2]: 1.883
- Bleomycin fold change, AT3G27950 (GDSL-like Lipase/Acylhydrolase superfamily protein) [1, 2]: 4.012
- Bleomycin fold change, AT4G02390 (Poly(ADP-ribose) polymerase) [1, 2]: 2.663
- Bleomycin fold change, AT4G04750 (Major facilitator superfamily protein) [1, 2]: 1.689
- Bleomycin fold change, AT4G05370 (BCS1 AAA-type ATPase) [1, 2]: 1.807
- Bleomycin fold change, AT4G15480 (UDP-Glycosyltransferase superfamily protein) [1, 2]: 2.394
- Bleomycin fold change, AT4G21070 (Breast cancer susceptibility1) [1, 2]: 2.386
- Bleomycin fold change, AT4G22960 (Unknown function DUF544) [1, 2]: 2.282
- Bleomycin fold change, AT5G03780 (TRF-like 10) [1, 2]: 1.600
- Bleomycin fold change, AT5G14920 (Gibberellin-regulated family protein) [1, 2]: 2.122
- Bleomycin fold change, AT5G20850 (RAS associated with diabetes protein 51) [1, 2]: 1.765
- Bleomycin fold change, AT5G24280 (Gamma-irradiation and mitomycin c induced 1) [1, 2]: 2.584
- Bleomycin fold change, AT5G25810 (Integrase-type DNA-binding superfamily protein) [1, 2]: 1.573
- Bleomycin fold change, AT5G40840 (Rad21/Rec8-like family protein) [1, 2]: 1.692
- Bleomycin fold change, AT5G48720 (X-ray induced transcript 1) [1, 2]: 2.228
- Bleomycin fold change, AT5G49110 (unknown protein) [1, 2]: 1.562
- Bleomycin fold change, AT5G49480 (Ca2+-binding protein 1) [1, 2]: 1.580
- Bleomycin fold change, AT5G55490 (Gamete expressed protein 1) [1, 2]: 2.407
- Bleomycin fold change, AT5G60100 (pseudo-response regulator 3) [1, 2]: 1.801
- Bleomycin fold change, AT5G60250 (Zinc finger C3HC4-type RING finger family protein) [1, 2]: 2.352
- Bleomycin fold change, AT5G64060 (NAC domain containing protein 103) [1, 2]: 2.153
- Bleomycin fold change, AT5G66130 (RADIATION SENSITIVE 17) [1, 2]: 1.627
- Bleomycin fold change, AT5G66985 (unknown protein) [1, 2]: 1.612
- induction of SMR7 (At3g27630) in the bleomycin experiment ([1]; Aragene array): 5.68 fold
